According to patent US10689331B2, “IDO inhibitors” (Bristol-Myers Squibb Company, priority 2015, dated 2020):

Target: T1, human IDO1 (Homo sapiens, UniProt P14902)
T1 construct: expressed in transfected cells
Experiment: HEK Human IDO-1 inhibition assay (kynurenine readout, Ehrlich reagent, absorbance 490 nm)
Format: cell-based
Conditions: human IDO1/HEK293 cells, incubated 20 hours with compound; 500 nM reference standard = 100% inhibition
Procedure, shortened: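 HEK293 cells stably expressing human IDO1, treated with compound for 20 h at 37 °C in phenol red-free RPMI/10% FBS. Kynurenine detected after TCA (0.2% final, 50 °C, 30 min) by Ehrlich reagent absorbance at 490 nm; IC50 normalised to 500 nM reference standard (100%) and DMSO (0%).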

T1 sequence (P14902 whole entry): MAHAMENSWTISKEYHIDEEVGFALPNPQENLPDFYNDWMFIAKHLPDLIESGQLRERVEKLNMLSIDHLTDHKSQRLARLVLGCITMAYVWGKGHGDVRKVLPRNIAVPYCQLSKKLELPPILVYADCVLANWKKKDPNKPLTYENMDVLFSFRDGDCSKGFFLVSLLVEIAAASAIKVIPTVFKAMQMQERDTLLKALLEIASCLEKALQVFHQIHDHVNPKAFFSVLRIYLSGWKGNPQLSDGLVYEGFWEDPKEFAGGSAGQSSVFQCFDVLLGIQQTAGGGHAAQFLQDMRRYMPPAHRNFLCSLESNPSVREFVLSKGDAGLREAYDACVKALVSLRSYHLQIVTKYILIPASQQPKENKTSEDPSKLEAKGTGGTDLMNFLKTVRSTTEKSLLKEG

Row | SMILES | IC50
1 | CC(C)CN(c1ccc(OCC(=O)O)cc1NC(=O)Nc1ccc(Cl)cc1F)C1CCCCC1 [Example 1, 2-(3-(3-(4-chloro-2-fluorophenyl)ureido)-4-(cyclohexyl(isobutyl)amino)phenoxy)acetic acid] | < 5 nM
2 | COCC(Oc1ccc(N(CC(C)C)C2CCCCC2)c(NC(=O)Nc2ccc(Cl)cc2F)c1)C(=O)O (single isomer, unassigned) [Example 89-2, 2-(3-(3-(4-chloro-2-fluorophenyl)ureido)-4-(cyclohexyl(isobutyl)amino)phenoxy)-3-methoxypropanoic acid] | < 100 nM
3 | CC(C)CN(c1ccc(OCC(=O)O)cc1NC(=O)N(C)c1ccc(F)cc1)C1CCCCC1 [Example 41, 2-(4-(cyclohexyl(isobutyl)amino)-3-(3-(4-fluorophenyl)-3-methyl-ureido)phenoxy)acetic acid] | ≥ 100 nM
4 | CC(C)CN(c1ccc(OC(C(=O)O)C(C)C)cc1NC(=O)Nc1ccc(Cl)cc1F)C1CCCCC1 (racemic) [Example 83] | < 5 nM
5 | CC(C)CN(c1ccc(OCC(=O)O)cc1NC(=O)Nc1cncnc1)C1CCCCC1 [Example 2, 2-(4-(cyclohexyl(isobutyl)amino)-3-(3-(pyrimidin-5-yl)ureido)phenoxy)acetic acid] | ≥ 100 nM
6 | CC(C)CN(c1ccc(OC(C)(C)C(=O)O)cc1NC(=O)Nc1ccc(Cl)cc1F)C1CCCCC1 [Example 91, 2-(3-(3-(4-chloro-2-fluorophenyl)ureido)-4-(cyclohexyl(isobutyl)amino)phenoxy)-2-methylpropanoic acid] | < 5 nM
7 | CC(C)CN(c1ccc(OCC(=O)O)cc1NC(=O)Nc1ccc(OCc2ccccc2)cc1)C1CCCCC1 [Example 15, 2-(3-(3-(4-(benzyloxy)phenyl)ureido)-4-(cyclohexyl(isobutyl)amino)phenoxy)acetic acid] | ≥ 100 nM
8 | CC(C)CN(c1ccc(OCC(=O)O)cc1NC(=O)Nc1ccc(Cl)cc1F)C1CCC(F)(F)CC1 [Example 98, 2-(3-(3-(4-Chloro-2-fluorophenyl)ureido)-4-((4,4-difluorocyclohexyl)(isobutyl)amino)-phenoxy)acetic acid] | < 5 nM
9 | CC(C)CN(c1ccc(OCC(=O)O)cc1N(C)C(=O)Nc1ccc(Cl)cc1F)C1CCCCC1 [Example 45] | ≥ 100 nM
10 | CC(C)CN(c1ccc(OCC(=O)O)cc1NC(=O)Nc1ccc(Oc2ccccc2)cc1)C1CCCCC1 [Example 13, 2-(4-(cyclohexyl(isobutyl)amino)-3-(3-(4-phenoxyphenyl)ureido)phenoxy)acetic acid] | ≥ 100 nM
11 | CC(C)CN(c1c(F)cc(OCC(=O)O)cc1NC(=O)Nc1ccc(Cl)cc1F)C1CCCCC1 [Example 104, 2-(3-(3-(4-chloro-2-fluorophenyl)ureido)-4-(cyclohexyl(isobutyl)amino)-5-fluorophenoxy)acetic acid] | < 5 nM
12 | CC(C)CN(c1ccc(OCC(=O)NCC(F)(F)F)cc1NC(=O)Nc1ccc(Cl)cc1F)C1CCCCC1 [Example 135, 2-(3-(3-(4-chloro-2-fluorophenyl)ureido)-4-(cyclohexyl(isobutyl)amino)phenoxy)-N-(2,2,2-trifluoroethyl)acetamide] | ≥ 100 nM
13 | CCOc1ccc(NC(=O)Nc2cc(OCC(=O)O)ccc2N(CC(C)C)C2CCC(F)(F)CC2)cc1 [Example 100, 2-(4-((4,4-Difluorocyclohexyl)(isobutyl)amino)-3-(3-(4-ethoxyphenyl)ureido)phenoxy)acetic acid] | ≥ 100 nM
14 | Cc1ccc(NC(=O)Nc2cc(OCC(=O)O)ccc2N(CC2CC2)C2CCCCC2)cc1 [Example 131, 2-(4-(cyclohexyl(cyclopropylmethyl)amino)-3-(3-(p-tolyl)ureido)phenoxy)acetic acid] | ≥ 100 nM
15 | CCCC(Oc1ccc(N(CC(C)C)C2CCCCC2)c(NC(=O)Nc2ccc(Cl)cc2F)c1)C(=O)O (single isomer, unassigned) [Example 85-2, 2-(3-(3-(4-chloro-2-fluorophenyl)ureido)-4-(cyclohexyl(isobutyl)amino)phenoxy)pentanoic acid] | < 5 nM
16 | CC(C)CN(c1ccc(OC2(C(=O)O)CC2)cc1NC(=O)Nc1ccc(Cl)cc1F)C1CCCCC1 [Example 93, 1-(3-(3-(4-chloro-2-fluorophenyl)ureido)-4-(cyclohexyl(isobutyl)amino)phenoxy)cyclopropanecarboxylic acid] | < 5 nM
17 | COCCN(c1ccc(OCC(=O)O)cc1NC(=O)Nc1ccc(F)cc1F)C1CCCCC1 [Example 117, 2-(4-(cyclohexyl(2-methoxyethyl)amino)-3-(3-(2,4-difluorophenyl)ureido)phenoxy)acetic acid] | ≥ 100 nM
18 | Cc1ccc(NC(=O)Nc2cc(OCc3nnn[nH]3)c(F)cc2N(CC(C)C)CC(C)C)cc1 [Example 95, 1-(5-((1H-tetrazol-5-yl)methoxy)-2-(diisobutylamino)-4-fluorophenyl)-3-(p-tolyl)urea] | < 100 nM
19 | CC(C)CN(c1cc(F)c(OC(C)C(=O)O)cc1NC(=O)Nc1ccc(Cl)cc1F)C1CCCCC1 (racemic) [racemic 136] | < 5 nM

Row | SMILES | IC50
20 | CC(C)CN(c1ccc(OCC(=O)O)cc1NC(=O)Nc1ccc(Cl)cc1F)C1CCC(O)CC1 (centres unmarked) [Example 149, 2-(3-(3-(4-chloro-2-fluorophenyl)ureido)-4-((0-4-hydroxycyclohexyl)(isobutyl)amino)phenoxy)acetic acid] | ≥ 100 nM
21 | Cc1ccc(NC(=O)Nc2cc(OCC(=O)O)c(Cl)cc2N(CC(C)C)C2CCCCC2)cc1 [Example 122, 2-(2-chloro-4-(cyclohexyl(isobutyl)amino)-5-(3-(p-tolyl)ureido)phenoxy)acetic acid] | ≥ 100 nM
22 | CC(C)CN(c1ccc(OC(C)C(=O)NS(=O)(=O)C2CC2)cc1NC(=O)Nc1ccc(Cl)cc1F)C1CCCCC1 (racemic) [Example 70, (±)-2-(3-(3-(4-chloro-2-fluorophenyl)ureido)-4-(cyclohexyl(isobutyl)amino)phenoxy)-N-(cyclopropylsulfonyl) propanamide] | < 5 nM
23 | CCCC(Oc1ccc(N(CC(C)C)C2CCCCC2)c(NC(=O)Nc2cncnc2)c1)C(=O)O (single isomer, unassigned) [Example 88-2, 2-(4-(cyclohexyl(isobutyl)amino)-3-(3-(pyrimidin-5-yl)ureido)phenoxy)pentanoic acid] | < 100 nM
24 | CCOC(=O)C(C)Oc1ccc(N(CC(C)C)C2CCCCC2)c(NC(=O)Nc2ccc(Cl)cc2F)c1 (racemic) [racemic 67] | < 5 nM
25 | CC(C)CN(c1ccc(OCC(=O)O)cc1NC(=O)Nc1ccc(C#N)cc1F)C1CCCCC1 [Example 43, 2-(3-(3-(4-cyano-2-fluorophenyl)ureido)-4-(cyclohexyl(isobutyl)amino)phenoxy)acetic acid] | < 5 nM
26 | CCC(Oc1ccc(N(CC(C)C)C2CCCCC2)c(NC(=O)Nc2ccccc2F)c1)C(=O)O (single isomer, unassigned) [Example 81-2, 2-(4-(cyclohexyl(isobutyl)amino)-3-(3-(2-fluorophenyl)ureido)phenoxy)butanoic acid] | < 5 nM
27 | CC(C)CN(c1ccc(OCC(=O)O)cc1NC(=O)Nc1ccc(F)c(Cl)c1F)C1CCCCC1 [Example 24, 2-(3-(3-(3-chloro-2,4-difluorophenyl)ureido)-4-(cyclo-hexyl(isobutyl)amino)phenoxy) acetic acid] | ≥ 100 nM
28 | CC(C)CN(c1ccc(OC(C)C(=O)O)cc1NC(=O)Cc1ccc(Cl)cc1F)C1CCCCC1 (racemic) [Example 73] | < 100 nM
29 | Cc1ccc(NC(=O)Nc2cc(OC(C(=O)O)C(C)C)ccc2N(CC(C)C)C2CCCCC2)cc1 (racemic) [Example 84, (±)-2-(4-(cyclohexyl(isobutyl)amino)-3-(3-(p-tolyl)ureido)phenoxy)-3-methylbutanoic acid] | < 100 nM
30 | CCCC(Oc1ccc(N(CC(C)C)C2CCCCC2)c(NC(=O)Nc2ccc(C)cc2)c1)C(=O)O (single isomer, unassigned) [Example 86-2, 2-(4-(cyclohexyl(isobutyl)amino)-3-(3-(p-tolyl)ureido)phenoxy)pentanoic acid] | < 5 nM
31 | Cc1ccc(N(C)C(=O)Nc2cc(OCC(=O)O)ccc2N(CC(C)C)C2CCCCC2)cc1 [Example 40, 2-(4-(cyclohexyl(isobutyl)amino)-3-(3-methyl-3-(p-tolyl)ureido)phenoxy)acetic acid] | ≥ 100 nM
32 | CC(C)CN(c1ccc(OCC(=O)O)cc1NC(=O)Nc1ccc(Br)cc1F)C1CCC(F)(F)CC1 [Example 99, 2-(3-(3-(4-Bromo-2-fluorophenyl)ureido)-4-((4,4-difluorocyclohexyl)(isobutyl)amino)-phenoxy)acetic acid] | < 5 nM
33 | CC(C)CN(c1c(C#N)cc(OCC(=O)O)cc1NC(=O)Nc1ccc(Cl)cc1F)C1CCCCC1 [Example 108, 2-(3-(3-(4-chloro-2-fluorophenyl)ureido)-5-cyano-4-(cyclohexyl(isobutyl)amino)phenoxy)acetic acid] | < 100 nM
34 | CC(C)CN(c1ccc(OC(C)C(=O)O)cc1NC(=O)Nc1ccc(Cl)cc1F)C1CCCCC1 (single isomer, unassigned) [Example 61-2, 2-(3-(3-(4-chloro-2-fluorophenyl)ureido)-4-(cyclo-hexyl(isobutyl)amino)phenoxy)propanoic acid] | < 5 nM
35 | CC(C)CN(c1ccc(OC(C)C(=O)O)cc1NC(=O)Nc1ccc(C#N)cc1)C1CCCCC1 (racemic) [racemic 66] | ≥ 100 nM
36 | CCCN(Cc1ccccc1)c1ccc(OCC(=O)O)cc1NC(=O)Nc1ccc(Cl)cc1F [Example 158, 2-(4-(benzyl(propyl)amino)-3-(3-(4-chloro-2-fluorophenyl)ureido)phenoxy)acetic acid] | < 100 nM
37 | CC(C)CN(c1ccc(OCC(=O)O)c(F)c1NC(=O)Nc1ccc(Cl)cc1F)C1CCCCC1 [Example 107, 2-(3-(3-(4-chloro-2-fluorophenyl)ureido)-4-(cyclohexyl(isobutyl)amino)-2-fluorophenoxy)acetic acid] | ≥ 100 nM
38 | CC(C)CN(c1cc(F)c(OCC(=O)O)cc1NC(=O)Nc1ccc(Cl)cc1F)C1CCCCC1 [Example 115, 2-(5-(3-(4-chloro-2-fluorophenyl)ureido)-4-(cyclohexyl(isobutyl)amino)-2-fluorophenoxy)acetic acid] | < 5 nM
